Test results published in US6200963A, “Aryl sulfonic acids as FSH antagonists” (American Home Products Corporation, priority 2000, dated 2001).
Counter-ions that a name gives are not always drawn. Like-named read-outs stand apart in the source and are kept apart here.

What was measured:
[1] = target: T1, FSH receptor (Homo sapiens, UniProt P23945); assay: FSH Receptor Radioligand Membrane Binding Assay ([125I]hFSH, CHO cell membranes); set-up: expressed in transfected cells; membrane homogenate; conditions: for inhibition at 10 µM: read-out: % Inhibition at 10 μM conc.; for inhibition at 100 µM: read-out: % Inhibition at 100 μM conc.
T1 sequence (P23945 18-695): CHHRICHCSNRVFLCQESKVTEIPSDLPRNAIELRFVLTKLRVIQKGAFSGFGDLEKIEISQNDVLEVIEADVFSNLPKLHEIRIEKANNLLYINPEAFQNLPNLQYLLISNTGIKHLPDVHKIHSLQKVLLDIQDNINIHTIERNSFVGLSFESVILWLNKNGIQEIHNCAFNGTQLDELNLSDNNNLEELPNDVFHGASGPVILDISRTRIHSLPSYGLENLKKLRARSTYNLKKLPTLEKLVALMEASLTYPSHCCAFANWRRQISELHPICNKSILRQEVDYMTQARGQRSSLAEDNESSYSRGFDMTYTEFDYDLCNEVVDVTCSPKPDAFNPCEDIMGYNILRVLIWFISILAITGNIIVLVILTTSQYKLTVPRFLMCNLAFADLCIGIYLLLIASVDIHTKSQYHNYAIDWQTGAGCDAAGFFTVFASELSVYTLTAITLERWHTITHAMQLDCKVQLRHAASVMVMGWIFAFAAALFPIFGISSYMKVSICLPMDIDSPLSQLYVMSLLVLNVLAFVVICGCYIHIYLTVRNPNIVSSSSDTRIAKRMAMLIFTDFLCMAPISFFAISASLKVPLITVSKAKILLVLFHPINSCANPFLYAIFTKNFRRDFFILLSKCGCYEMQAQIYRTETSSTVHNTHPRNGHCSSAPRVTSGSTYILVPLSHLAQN
Experimental: FSH Receptor Radioligand Membrane Binding Assay
Membrane Source: Chinese hamster ovarian cells stably transfected with the human FSH receptor were cultured (Ultra CHO medium containing 1% fetal bovine serum and 200 μg/mL G418) in and harvested. Cells were collected by centrifugation and resulting cell pellets were frozen and stored at -70° C.
Membrane Receptor Preparation: Frozen cell pellets were weighed and resuspended in binding buffer to a final concentration of 30 mg wet weight/mL. Cell suspension for each pellet was homogenized using a Tempest homogenizer (setting=1; 5 strokes; VirTis, Gardiner, N.Y.). Cell homogenates were pooled and 35 mL aliquots were transferred to 50-mL polypropylene copolymer centrifuge tubes (Nalgene cat. #3110-0500). Tubes were spun at 12,000 rpm (SS34 rotor) for 12 min at 4° C. Resulting supernatant fractions were discarded and pellets were stored at -70° C. until use. On the day of the assay, 35 mL binding buffer was added to each tube (35 mL membrane suspension was sufficient for three 96-well plates). The membrane pellet was dispersed by trituration using a pipet. The resulting suspension was homogenized using a Tempest homogenizer (3 strokes at setting=1).
Receptor Binding Assay: Membrane homogenate (100 μl) was added to each well of a 96-well microtiter plate (Falcon # 3077). All reactions were tested in triplicate. Test compound solutions (50 μl) were added to the designated wells. Total bound counts were determined by adding 50 μl binding buffer containing 4% DMSO to the designated wells. […] Plates were pre-incubated for 15 min at room temperature on shaking platform (setting=3). After preincubation [^125 I]FSH (50 μl) was added to each well and plates were incubated for 2 h at room temperature on shaking platform (setting=3). The reaction was terminated by transfer of the membrane preparation to glass fiber filters (Blue Mat #11740; 102×256 mm; Skatron Instruments, Sterling, Va.) that had been pretreated with 1% BSA in wash buffer for at least 30 min, but not longer than 1 h using a 96-well microtiter vacuum harvester (Skatron Instruments). The membrane preparation was washed with 5 cycles of ice-cold wash buffer (200 μl/well/cycle) followed by a pulse wash of 3 cycles (100 μl/well/cycle). The total wash volume per well was 1.3 mL. The filters were dried by a 10 sec aspiration. Disks corresponding to each well of the microtiter plate were punched out of the filter mat into 12×75 mm polypropylene tubes. The radioactivity present on each of the disks was measured using a gamma counter.
An FSH dose response curve (0.001, 0.01, 0.1, 1, 10, and 100 nM) was generated for each binding assay to monitor assay to assay variability.
FSH Receptor Radioligand Membrane Binding Assay Buffers and Reagents
Binding Buffer (pH 7.2): 10 mM Trizma®-HCl (Sigma)
Binding buffer was prepared in 1 l volumes containing Trizma-HCl, MgCl2, CaCl2 and sodium azide, the pH was adjusted to 7.2 with NaOH, and stored at 4° C. until use. BSA was weighed out on the day of the assay and added to the amount of buffer required for the assay (usually 150 mL). The protease inhibitors were prepared as 1 mg/mL stocks (aprotinin, leupeptin, and phosphoramidon were prepared in binding buffer without BSA and protease inhibitors; pepstatin and PMSF were prepared in methanol), stored in 1 mL aliquots at -70° C., and added to the binding buffer on the day of the assay.
Wash Buffer (pH 7.2): 50 mM Trizma®-HCl (Sigma)
Wash buffer was prepared containing Trizma-HCl, MgCl2 and EDTA, the pH was adjusted to 7.2 with NaOH, and stored at 4° C.
Filter Soak Buffer (pH 7.2): Wash Buffer
BSA was weighed out on the day of the assay and added to 300 mL of wash buffer. The filter soak buffer was used for two assays before being discarded.
A portion of the stock solution was diluted in binding buffer to a concentration of 200 pM. […]

[2] = target: T2, FSH receptor (Rattus norvegicus, UniProt P20395); assay: In Vitro Bioassay of Agonists and Antagonists to the FSH Receptor using Primary Cultures of Rat Granulosa (estradiol secretion); format: cell-based; set-up: immature female Sprague-Dawley rats (Charles River Laboratories, Wilmington, Mass.) were used as donors for ovarian granulosa cells; endogenous in cells; host or cells: primary ovarian granulosa cells of immature female Sprague-Dawley rats; conditions: antagonist mode; ED50 of FSH (0.5 ng/mL), rat granulosa cells, 72 h; read-out: IC50 (half-maximal inhibition of FSH-induced estradiol secretion)
T2 sequence (P20395 18-692): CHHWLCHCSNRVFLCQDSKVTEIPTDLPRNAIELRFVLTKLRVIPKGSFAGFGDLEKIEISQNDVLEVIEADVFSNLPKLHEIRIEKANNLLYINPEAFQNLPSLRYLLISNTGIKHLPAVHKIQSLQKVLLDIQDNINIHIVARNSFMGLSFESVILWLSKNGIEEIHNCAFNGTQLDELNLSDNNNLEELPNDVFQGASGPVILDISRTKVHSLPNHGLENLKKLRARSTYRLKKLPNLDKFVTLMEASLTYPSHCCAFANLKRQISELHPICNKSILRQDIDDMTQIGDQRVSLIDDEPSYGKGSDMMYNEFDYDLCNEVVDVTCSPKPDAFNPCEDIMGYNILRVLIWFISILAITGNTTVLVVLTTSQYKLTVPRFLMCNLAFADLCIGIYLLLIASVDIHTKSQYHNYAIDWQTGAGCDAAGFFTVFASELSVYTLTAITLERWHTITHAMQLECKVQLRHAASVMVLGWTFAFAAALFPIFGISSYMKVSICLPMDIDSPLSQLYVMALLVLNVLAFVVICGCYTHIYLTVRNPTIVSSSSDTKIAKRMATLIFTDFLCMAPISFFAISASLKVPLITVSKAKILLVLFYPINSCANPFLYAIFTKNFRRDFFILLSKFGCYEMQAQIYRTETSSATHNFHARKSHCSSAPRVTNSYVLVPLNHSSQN

[3] = target: T1, FSH receptor; assay: In Vitro Bio-assay of Agonists and Antagonists to the FSH Receptor (cAMP accumulation in CHO-3D2 cells); format: cell-based; set-up: expressed in transfected cells; host or cells: CHO-3D2 cells
Experimental: Preparation of CHO-3D2 Cells; CHO-3D2 cells were plated into 96-well Nunc tissue culture plates at a density of 30,000 cells/well in DMEM/F12 medium (Gibco/BRL, Grand Island, N.Y.) supplemented with 5% Fetal Bovine Serum (Hyclone, Fetal Clone II), 2 mM L-glutamine and penicillin/streptomycin (100 U/mL).
The plate was split in half to test a single compound in both agonist and antagonist mode on the same plate.
For agonist mode, compounds were tested using 5 different concentrations in a dose-response paradigm using one column as a control (challenge medium alone) in agonist mode.
The 96-well format allowed for the capability to test 4 columns of compound, using one of the remaining columns for negative control (challenge medium alone) and the other remaining column for ampositive control (ED20 of FSH alone).
The doses chosen to test each compound were extrapolated from the initial screening process (receptor binding data).
Data were analyzed statistically by analysis of variance and significant differences between treatments and control determined by Dunnett's test. In antagonist mode, a Duncan's test was used.
Reference Compounds: Test compounds were compared to the effect of purified or recombinant human FSH.

[4] = target: T2, FSH receptor; conditions: literature, in words; cited from earlier work
[5] = test system: testosterone production; conditions: humans administered suramin; in words; cited from earlier work
[6] = test system: testosterone production; conditions: rats administered suramin; in words; cited from earlier work
[7] = 10 μM, [125I]hFSH binding, CHO membranes with human FSH receptor
[8] = 100 μM, [125I]hFSH binding, CHO membranes with human FSH receptor
[9] = antagonist mode, hFSH-induced cAMP accumulation (ED20 of FSH, […]), CHO-3D2 cells, 30 min

inhibition at 10 µM [1, 7] [%]	inhibition at 100 µM [1, 8] [%]	IC50 [1] [µM]	Compound	also measured
		101	COc1ccc(N=Nc2c(S(=O)(=O)O)cc3cc(NC(=O)c4ccc(N(C)C)cc4)ccc3c2O)cc1 [Example 12, 7-(4-Dimethylamino-benzoylamino)-4-hydroxy-3-(4-methoxy-phenylazo)-napthalene-2-sulfonic Acid, Sodium Salt]	
14	60	81	COc1ccc(N=Nc2c(S(=O)(=O)O)cc3cc(NC(=O)c4cc(OC)cc(OC)c4)ccc3c2O)cc1 [Example 14, 7-(3,5-Dimethoxy-benzoylamino)-4-hydroxy-3-(4-methoxy-phenylazo)-napthalene-2-sulfonic Acid]	
10	8		COc1ccc(N=Nc2c(S(=O)(=O)O)cc3cc(NC(=O)c4c(OC)cccc4OC)ccc3c2O)cc1 [Example 18, 7-(2,6-Dimethoxy-benzoylamino)-4-hydroxy-3-(4-methoxy-phenylazo)-napthalene-2-sulfonic Acid]	
19	100	14	COc1ccc(N=Nc2c(S(=O)(=O)O)cc3cc(NC(=O)c4ccc(OC)c(OC)c4)ccc3c2O)cc1 [Example 19, 7-(3,4-Dimethoxy-benzoylamino)-4-hydroxy-3-(4-methoxy-phenylazo)-napthalene-2-sulfonic Acid]	IC50 [3]: 16 µM

The remaining lines, values behind:

Compound	inhibition at 10 µM [1, 7] [%]	inhibition at 100 µM [1, 8] [%]	IC50 [1] [µM]	also measured
COc1ccc(N=Nc2c(S(=O)(=O)O)cc3cc(Nc4nc(Cl)nc(N(CCC(N)=O)CCC(N)=O)n4)ccc3c2O)cc1 [Example 9, 7-{4-[Bis-(2-carbamoyl-ethyl)-amino]-6-chloro-[1,3,5]-triazin-2-ylamino)-4-hydroxy-3-(4-methoxy-phenylazo)-napthalene-2-sulfonic Acid, Sodium Salt]	74	94		% Inhibition at 10 μM conc. ([1]; 10 μM, [125I]hFSH binding, CHO membranes with human FSH receptor, Sodium Salt): 66%; % Inhibition at 100 μM conc. ([1]; 100 μM, [125I]hFSH binding, CHO membranes with human FSH receptor, Sodium Salt): 98%; IC50 ([1]; [125I]hFSH binding, CHO membranes with human FSH receptor, Sodium Salt): 5 µM; IC50 ([1]; [125I]hFSH binding, CHO membranes with human FSH receptor, listed as 3, Sodium Salt): 6 µM; IC50 [2]: 1.9 µM; IC50 [3, 9]: 1.4 µM
COc1ccc(N=Nc2c(S(=O)(=O)O)cc3cc(Nc4nc(Cl)nc(N(CCO)CCO)n4)ccc3c2O)cc1 [Example 11, 7-{4-[Bis-(2-hydroxy-ethyl)-amino]-6-chloro-[1,3,5]-triazin-2-ylamino)-4-hydroxy-3-(4-methoxy-phenylazo)-napthalene-2-sulfonic Acid, Sodium Salt]	29	71		IC50 ([1]; [125I]hFSH binding, CHO membranes with human FSH receptor): 8.6 µM; IC50 [3, 9]: 10 µM
COc1ccc(N=Nc2c(S(=O)(=O)O)cc3cc(NC(=O)c4ccccc4)ccc3c2O)cc1 [Example 16, 7-Benzoylamino-4-hydroxy-3-(4-methoxy-phenylazo)-napthalene-2-sulfonic Acid]	11	76	79	
Cc1ccc(C(=O)Nc2ccc(S(=O)(=O)O)c3cc(S(=O)(=O)O)cc(S(=O)(=O)O)c23)cc1NC(=O)c1cccc(NC(=O)Nc2cccc(C(=O)Nc3cc(C(=O)Nc4ccc(S(=O)(=O)O)c5cc(S(=O)(=O)O)cc(S(=O)(=O)O)c45)ccc3C)c2)c1 [suramin]				inhibition of FSH binding to its receptor [4]: inhibit FSH binding to its receptor; testosterone production [5]: decrease in testosterone production; testosterone production [6]: decrease in testosterone production
